{"source": "patent US20060148832A1", "about": "“Use of 2-amino-2h-quinazoline derivatives for producing therapeutic agents” (priority 2003, published 2006)", "key": {"[1]": {"experiment": "Cyclization of the anagrelide prodrug to anagrelide in aqueous medium as a function of pH", "format": "physicochemical", "settings": "37° C., after one hour", "excerpt": "The 2-amino-2H-quinazoline derivatives according to the invention can be cyclized to the anagrelide in aqueous medium as a function of the pH without addition of other adjuvants or boiling under reflux for hours. […] A cyclization of the compound with the general chemical formula I in strongly acidic pH range, as prevails, for example, in the stomach of mammals, has only been detected up to a certain small percentage.\n(§1) For the cyclization, 0.3 mmol of the anagrelide prodrug methyl-(2-amino-5,6-dichloro-2H-quinazolin-3-yl) acetate hydrochloride (analysis: UV-Maxima 217,262 nm; MW 324.59; mp>250° C.), corresponding to the general formula I, wherein R1 indicates an alkyl group with one carbon atom, R2 and R3 each indicate a hydrogen atom, and R4 and R5 each indicate a chlorine atom, was added to 10 ml of an aqueous hydrochloric acid solution (0.1 M HCl), at 37° C. with slight stirring. After one hour, 9.6% of the prodrug was converted to anagrelide. [drawing 2]\nas §1, with “(MW 324.59)” for “(analysis: UV-Maxima 217,262 nm; MW 324.59; mp>250° C.),”, “pH-neutral water,” for “an aqueous hydrochloric acid solution (0.1 M HCl),”, “58%” for “9.6%”, “anagrelide.” for “anagrelide. [drawing 2]”\nas §1, with “hydrochloride” for “hydrochloride (analysis: UV-Maxima 217,262 nm; MW 324.59; mp>250° C.),”, “basic” for “hydrochloric acid”, “NaOH),” for “HCl),”, “100%” for “9.6%”, “anagrelide.” for “anagrelide. [drawing 2]”\n(§2) For the cyclization, 0.3 mmol of the anagrelide prodrug ethyl-(2-amino-5,6-dichloro-2H-quinazolin-3-yl) acetate hydrochloride hemihydrate, corresponding to the general formula I, wherein R1 indicates an alkyl group with two carbon atoms, R2 and R3 each indicate a hydrogen atom, and R4 and R5 each indicate a chlorine atom, was added to 10 ml of an aqueous basic solution (15 g of sodium hydrogen carbonate in 1 liter of water), at 37° C. with slight stirring. This basic solution was selected because it corresponds to a common test system for simulation of the milieu of the intestinal juice (pH between 8 and 10). After one hour, 100% of the prodrug was converted to anagrelide.\nas §2, with “methyl-(2-amino-5,6-dichloro-2H-quinazolin-3-yl)” for “ethyl-(2-amino-5,6-dichloro-2H-quinazolin-3-yl)”, “one” for “two”, “atom,” for “atoms,”\nas §2, with “hydrobromide (analysis: UV maxima 204, 216, 262 nm; mp 291-293,” for “hydrochloride hemihydrate,”"}, "blood platelets": {"tested_on": "blood platelets", "settings": "mentioned in U.S. Pat. No. 4,146,718; cited from earlier work"}, "thrombocytes": {"tested_on": "thrombocytes", "settings": "dose of 3 mg/day, after one week; cited from earlier work"}, "[2]": {"settings": "anagrelide base; cited from earlier work"}, "[3]": {"settings": "0.3 mmol in 10 ml aqueous basic solution (15 g sodium hydrogen carbonate in 1 liter water; simulated intestinal juice, pH between 8 and 10)"}}}
{"compound": "Br.CCOC(=O)CN1Cc2c(ccc(Cl)c2Cl)N=C1N", "note": "[Ethyl-(2-amino-5,6-dichloro-2H-quinazolin-3-yl) acetate hydrobromide]", "values": [{"measurement": "prodrug converted to anagrelide", "setting": "[1]; [3]", "result": 100, "unit": "%"}, {"measurement": "effect on blood platelets", "setting": "blood platelets", "result": "anti-aggregative effect on blood platelets"}]}
{"compound": "O=C1CN2Cc3c(ccc(Cl)c3Cl)N=C2N1", "note": "[anagrelide, 6,7-dichloro-1,5-dihydroimidazo-[2,1-b]-quinazolin-2-[3H]-one]", "values": [{"measurement": "decrease in thrombocytes", "setting": "thrombocytes", "result": "approximately 50%"}, {"measurement": "solubility in water", "setting": "[2]", "result": "difficultly soluble in water"}]}
{"compound": "COC(=O)CN1C=c2c(Cl)c(Cl)ccc2=NC1N.Cl", "note": "(stereo not drawn) [Methyl-(2-amino-5,6-dichloro-2H-quinazolin-3-yl) acetate hydrochloride]", "values": [{"measurement": "prodrug converted to anagrelide", "setting": "[1]; 0.3 mmol in 10 ml aqueous basic solution (0.1 M NaOH)", "result": 100, "unit": "%"}, {"measurement": "prodrug converted to anagrelide", "setting": "[1]; 0.3 mmol in 10 ml aqueous hydrochloric acid solution (0.1 M HCl)", "result": 9.6, "unit": "%"}, {"measurement": "prodrug converted to anagrelide", "setting": "[1]; 0.3 mmol in 10 ml pH-neutral water", "result": 58, "unit": "%"}]}
{"compound": "Ethyl-(2-amino-5,6-dichloro-2H-quinazolin-3-yl) acetate hydrochloride hemihydrate", "values": [{"measurement": "prodrug converted to anagrelide", "setting": "[1]; [3]", "result": 100, "unit": "%"}]}
{"compound": "Methyl-(2-amino-5,6-dichloro-2H-quinazolin-3-yl) acetate hydrochloride hemihydrate", "values": [{"measurement": "prodrug converted to anagrelide", "setting": "[1]; [3]", "result": 100, "unit": "%"}]}
